Reference: patent US5998414A, “Troponyl piperazines as dopamine D4 receptor ligands” (priority 1997, dated 1999)

Columns and labels:
[1] = target: T1, human D4 receptor (D4.2 sub-type) (Homo sapiens, UniProt P21917, DEL265-296); assay: D4 receptor displacement binding assay (3H-spiperone, membrane homogenate of stably transfected HEK 298 cells); settings: 3H-spiperone displacement, human D4.2, HEK cells; Cheng and Prustoff transformation of IC50; read-out: D4 affinity Ki
T1 construct: expressed in transfected cells; host or cells: HEK 298 (human embryonic kidney) cells (so in the source); membrane homogenate
T1 sequence (P21917 with tags, fused parts or gaps DEL265-296): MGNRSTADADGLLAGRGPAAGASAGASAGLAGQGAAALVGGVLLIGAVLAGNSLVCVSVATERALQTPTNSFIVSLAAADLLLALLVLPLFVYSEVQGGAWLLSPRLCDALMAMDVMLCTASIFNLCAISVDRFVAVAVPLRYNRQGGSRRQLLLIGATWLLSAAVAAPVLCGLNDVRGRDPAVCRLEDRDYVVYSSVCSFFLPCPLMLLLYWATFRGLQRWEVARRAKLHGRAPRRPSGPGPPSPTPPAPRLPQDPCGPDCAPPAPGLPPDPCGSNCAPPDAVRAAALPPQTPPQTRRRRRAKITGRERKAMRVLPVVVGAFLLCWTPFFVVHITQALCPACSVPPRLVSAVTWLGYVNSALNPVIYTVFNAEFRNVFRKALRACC
Procedure: (§1) The potency of the test compound to reduce ^3 H-spiperone binding directly correlated to its binding affinity for the receptor.
The cells were then centrifuged in a Sorval centrifuge for 10 min, 5000 rpm (GS3 rotor) and the pellets quickly frozen in liquid nitrogen and stored at -80° C. until used in binding assay. When used in the assay, cells were thawed on ice for 20 min and then 10 ml of incubation buffer (50 mM Tris, 1 mM EDTA, 4 mM MgCl2, 5 mM KCl, 1.5 mM CaCl2, 120 mM NaCl, pH 7.4) was added. […] Concentration of receptor protein was determined using the Pierce BCA assay.
(§2) Total Spiperone Binding Assay
(§3) The plates were vortexed and incubated at room temperature for 90 minutes. The binding reaction was stopped by filtering using a Packard Harvester. The samples were filtered under vacuum over glass fibre filter plates (Whatman GF/B) presoaked for 2 hours in 0.3% polyethylenimine (PEI) in 50 mM Tris buffer (pH 7.4). The filters were then washed 6 times with 7 ml ice cold 50 mM Tris buffer (pH 7.4). The filter plates were dried overnight and 35 μl of Microscint-O (Packard) was added. The plates were sealed and counted in the Packard Top Count (3 minutes per well).
Non-specific Binding Assay for D4
The plates were vortexed and incubated at room temperature for 90 minutes at which time the binding reaction was stopped by filtering. The filters were washed and counted using the same procedure as in the total binding assay described above to give the non-specific binding value (NSB).
(§4) Displacement Binding Assay
(§5) The incubation was started by the addition, in 96-well polypropylene plates (1 mL per well), of 100 μl (50 μg protein) membrane homogenate to a solution of 200 μl incubation buffer, 100 μl ([…].) ^3 H-spiperone (90 Ci/mmol, Amersham, diluted in borosilicate glass vial) and 100 μl of test compound that was prepared from 1 mM stock dissolved in DMSO and stored at -20° C. in polypropylene cryogenic storage vials until dilution in incubation buffer in 96-well polypropylene plates. The plates were vortexed and incubated at room temperature for 90 minutes at which time the binding reaction was stopped by filtering. The filters were washed and counted using the same procedure as in the total binding assay described above to give the displacement binding value (BD).
(§6) IC50 was determined from an inhibition response curve, logit-log plot of %B/B0 vs concentration of test compound.
(§7) Ki was calculated by the Cheng and Prustoff transformation: […]
(§8) where [L] is the concentration of ^3 H-spiperone used in the assay and KD is the dissociation constant of ^3 H-spiperone determined independently under the same binding conditions.

[2] = target: human D2 receptor (short isoform) (Homo sapiens, UniProt P14416); assay: D2 receptor displacement binding assay (3H-spiperone, membrane homogenate of stably transfected GH4 C1 cells), used for D2/D4 selectivity; settings: ratio D2/D4, 3H-spiperone displacement
Chain of human D2 receptor (short isoform) (P14416 with tags, fused parts or gaps DEL242-270): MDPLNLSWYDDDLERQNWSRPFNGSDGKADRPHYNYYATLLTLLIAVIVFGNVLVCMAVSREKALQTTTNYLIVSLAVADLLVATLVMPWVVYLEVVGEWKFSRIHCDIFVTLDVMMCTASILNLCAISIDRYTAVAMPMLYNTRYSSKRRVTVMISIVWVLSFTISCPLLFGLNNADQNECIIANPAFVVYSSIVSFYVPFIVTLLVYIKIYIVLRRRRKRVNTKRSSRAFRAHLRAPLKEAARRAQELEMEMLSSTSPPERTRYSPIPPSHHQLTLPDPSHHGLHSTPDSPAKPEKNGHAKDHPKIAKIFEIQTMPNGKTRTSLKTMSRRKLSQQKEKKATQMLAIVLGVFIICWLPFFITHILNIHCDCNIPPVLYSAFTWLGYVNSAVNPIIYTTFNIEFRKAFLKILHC
Procedure: as §1
GH4 C1 (rat pituitary) cells stably transfected with the human D2 receptor (short isoform) were grown in HAM'S F10 media in NUNC cell factories for 5 days. 100 μM ZnSO4 was added to the cells (the D2 promoter being zinc inducible). After 16 hours, fresh media was added to allow the cells to recover for 24 hours. The cells were harvested using versine and then centrifuged in a Sorval centrifuge for 10 minutes, at 5000 rpm (GS3 rotor). Pellets were quickly frozen in liquid nitrogen and stored at -80° C. until used in the binding assays. When used in the assay, cells were thawed on ice for 20 minutes. […] The receptor protein concentration was determined using the Pierce BCA assay.
as §2, §3
Non-specific Binding Assay for D2
This assay employed the same procedures as the non-specific binding assay for D4 with the exception that 2 μM (final conc.) of (-) sulpiride (Research Chemicals Inc.) was used in place of dopamine.
as §4, §5, §6, §7, §8

D2 receptor = settings: background, marketed products; cited from earlier work
D4 receptor = settings: background, marketed products; cited from earlier work
human D4.2 receptors = target: T2, human D4.2 receptors (Homo sapiens, UniProt P21917, DEL265-296); assay: Functional antagonist assay: reversal of dopamine inhibition of forskolin-stimulated adenyl cyclase (cAMP) in CHO Pro 5 cells; type: cell-based; settings: dopamine and forskolin both 10 μM, read-out: % reversal of dopamine effect; for inhibition at 1 µM: 1 μM test compound; for inhibition at 10 µM: 10 μM test compound
T2 construct: expressed in transfected cells; host or cells: CHO Pro 5 cells
T2 sequence (P21917 with tags, fused parts or gaps DEL265-296): T1 sequence (P21917 with tags, fused parts or gaps DEL265-296)
Procedure: The D4 receptor responds to dopamine and other agonists by reducing adenyl cyclase mediated production of cyclic AMP. Particular test compounds were assayed for their ability to reverse dopamine inhibition of adenyl cyclase by the following procedure. Forskolin was used to elevate the basal adenyl cyclase activity.
CHO Pro 5 cells stably expressing human D4.2 receptors were plated in 6 well plates in DMEM (Dulbecco's Modified Eagle Medium)/F12(Nutrient Mixture F12 (Ham)) media with 10% FCS (fetal calf serum) and G418 (Geneticen Disulfate), and incubated at 37° C. in a CO2 incubator. The cells were allowed to grow to about 70% confluence before use in the assay.
The culture media of each well was removed, and the wells were washed once with serum free media (SFM) (DMEM/F12) media. Then 2 mL of fresh SFM+IBMX media (SFM with 0.5 mM IBMX, 3-isobutyl-1-methylxanthine, 0.1% ascorbic acid and 10 μM pargyline) was added to each well and then incubated at 37° C. for 10 minutes in a CO2 incubator. […] Basal adenyl cyclase activity was determined from wells with only SFM+IBMX media added.
The cells were then incubated at 37° C. for 30 minutes in a CO2 incubator. Following incubation the media was removed from each well and then washed once with 1 mL of PBS (phosphate buffered saline). […] The cells from each well were then scraped and transferred into individual Eppendorf tubes. The tubes were centrifuged for 5 min at 4° C., and the supernatants were transferred to new Eppendorf tubes.
Total inhibition (I0) of forskolin-stimulated adenyl cyclase activity by dopamine was determined as the difference in concentration of cAMP in the forskolin-treated cells (Cf) and dopamine-forskolin treated cells (Cd).
Net inhibition (I) of forskolin-stimulated adenyl cyclase activity by dopamine in the presence of an antagonist was determined as the difference in concentration of cAMP in the forskolin-treated cells (Cf) and test compound, dopamine and forskolin treated cells (C).
The ability of the test compounds to reverse the dopamine inhibition (% reversal, % R) was determined by the formula: […]

Structure (SMILES)	Ki [1] [nM]	D2/D4 selectivity [2]	preference for binding the D4 receptor relative to the D2 receptor (D2 receptor)	Ki (D4 receptor) [nM]	inhibition at 1 µM (human D4.2 receptors) [%]	inhibition at 10 µM (human D4.2 receptors) [%]
O=c1c(-c2cccs2)ccccc1N1CCN(Cc2ccc3c(c2)OCO3)CC1 [2-(4-Piperonyl-1-piperazinyl)7-thien2-yl-2,4,6-cycloheptatriene-1-one]	11.9	34	–	–	–	–
O=c1cccccc1N1CCN(Cc2cccc(Br)c2)CC1 [2-[4-(3-bromobenzyl)-1-piperazinyl]-2,4,6-cycloheptatriene-1-one]	9.58	53	–	–	–	–
O=c1cccccc1N1CCN(Cc2ccc(C(F)(F)F)cc2)CC1 [2-[4-(4-trifluoromethylbenzyl)-1-piperazinyl]-2,4,6-cycloheptatriene-1-one]	4.22	598	–	–	–	–
O=c1cccccc1N1CCN(Cc2ccc3ccccc3c2)CC1	2.24	321	–	–	–	–
O=c1cccccc1N1CCN(Cc2ccc(OC(F)(F)F)cc2)CC1 [2-[4-(4-trifluoromethoxybenzyl)-1-piperazinyl]-2,4,6-cycloheptatriene-1-one]	2.18	367	–	–	–	–
CN1CCN(C2=Nc3cc(Cl)ccc3Oc3ccccc32)CC1 [isoloxapine]	–	–	about 10 fold	~20	–	–
O=c1cccccc1N1CCN(Cc2cccc(C(F)(F)F)c2)CC1 [2-[4-(3-trifluoromethylbenzyl)-1-piperazinyl]-2,4,6-cycloheptatriene-1-one]	21.5	28	–	–	–	–
O=c1c(Br)ccccc1N1CCN(Cc2ccc3c(c2)OCO3)CC1 [7-bromo-2-(4-piperonyl-1-piperazinyl)-2,4,6-cycloheptatriene-1-one]	0.226	104	–	–	–	–
CCCCCCN1CCN(c2cccccc2=O)CC1 [2-(4-hexyl-1-piperazinyl)-2,4,6-cycloheptatriene-1-one]	33.3	23	–	–	45	50
N#Cc1ccc(CN2CCN(c3cccccc3=O)CC2)cc1 [2-[4-(4-cyanobenzyl)-1-piperazinyl]-2,4,6-cycloheptatriene-1-one]	29.5	169	–	–	–	–
COc1cccc(CN2CCN(c3cccccc3=O)CC2)c1 [2-[4-(3-Methoxybenzyl)-1-piperazinyl]-2,4,6-cycloheptatriene-1-one]	19.2	137	–	–	–	–
Cc1ccc(CN2CCN(c3cccccc3=O)CC2)cc1 [2-[4-(4-methylbenzyl)-1-piperazinyl]-2,4,6-cycloheptatriene-1-one]	1.46	443	–	–	–	–
O=c1cccccc1N1CCN(Cc2ccc3c(c2)OCO3)CC1 [2-(4-Piperonyl-1-piperazinyl)-2,4,6-cycloheptatriene-1-one]	7.15	154	–	–	32	65
O=c1cccccc1N1CCN(Cc2ccc([N+](=O)[O-])cc2)CC1 [2-[4-(4-nitrobenzyl)-1-piperazinyl]-2,4,6-cycloheptatriene-1-one]	6.67	1014	–	–	–	–
O=c1cccccc1N1CCN(Cc2ccc(Br)cc2)CC1 [2-[4-(4-bromobenzyl)-1-piperazinyl]-2,4,6-cycloheptatriene-1-one]	0.82	935	–	–	–	–
